Source: patent USRE30731E, “Enkephalin analogues” (priority 1977, dated 1981)

Experiments:
mouse vas deferens = mouse vas deferens (M.V.D.) assay; format: cell-based; conditions: Met Enkephalin = 100%
From the text: (II)M.V.D. stands for mouse vas deferens
Kosterhtz, H. W. & Leslie. F. M. Br. J. Pharmac. 53, 371, 381,

rat brain membranes = assay: radio receptor assay (R.R.A.): displacement of tritiated naloxone from rat brain membranes; format: binding; conditions: based on concentration displacing 50% of (3H)naloxone (1 nM) from rat brain membranes; 0.1 M NaCl/50 mM Tris pH 7.4; 15 minutes; bacitracin
Protocol: (III)R.R.A. stands for radio receptor assay; based on the concentration
required to displace 50% of tritiated naloxone from rat brain membranes.
The displacements .[.replacements.]. were carried out against (^3
H)naloxane (lnM) in 0.1 M sodium chloride/50mM Tris buffer at pH 7.4;
incubations were for 15 minutes in the .Iadd.presence
.Iaddend..[.absence.]. of bacitracin. For general reference to the method
see literature as discussed in "Opiate Receptor Mechanisms". S. H. Snyder
and S. Matthysse eds, MIT Press, 1975.

rats = assay: tail flick assay, intraventricular administration; format: in vivo, rat; conditions: administered intraventricularly to rats
From the text: Also, we have indications of in vivo analgesic effects of the analogues.

Substance: 5-Amino-6-(4'-hdyroxyphenyl)-hexanoyl-glycyl-L-phenylalanyl-L-methionine a mide [Analogue H211]
- Activity Relative to Met Enkephalin, M.V.D. (mouse vas deferens): 0.9%
- Activity Relative to Met Enkephalin, R.R.A. (rat brain membranes): 8%
- analgesia (tail flick assay) (rats): analgesia lasting for several minutes
